Earlier results in PubChem BioAssay AID1259409 (Chemical Carcinogenesis Research Information System (CCRIS), 2018).

Test system: rodent chemically induced tumor inhibition, incidence and multiplicity
Assay: CCRIS tumor inhibitor studies
Conditions: Species: MOUSE

Cc1cc2nc3c(=O)[nH]c(=O)nc-3n(C[C@H](O)[C@H](O)[C@H](O)CO)c2cc1C
tumour outcome (control, treated, inhibition, significance) (Carcinogen: 7,12-DIMETHYLBENZ[A]ANTHRACENE, 57-97-6, Dose [Inhibitor]: 2 MG IN DRINKING WATER DAILY STARTING 4 WK BEFORE CARCINOGEN TREATMENT AND CONTINUING FOR DURATION OF THE STUDY (STUDY D, Route [Inhibitor]: ORAL, Strain/Sex: 101/MALE, FEMALE, Target Tissue: Type of Lesion: SKIN: PAPILLOMA, Dose [Carcinogen]: 225 UG IN 0.15 ML ACETONE ONCE, Promoter: CROTON OIL, 8001-28-3): 17/19 (89%), 19/19 (100%), -12%, not calculated
tumour outcome (control, treated, inhibition, significance) (Carcinogen: BENZO[A]PYRENE, 50-32-8, Dose [Inhibitor]: 0.2% IN DIET DAILY STARTING 4 WK BEFORE START OF CARCINOGEN TREATMENT AND CONTINUING FOR DURATION OF STUDY (STUDY DURATI, Route [Inhibitor]: ORAL, Strain/Sex: 101/MALE, FEMALE, Target Tissue: Type of Lesion: SKIN: TUMOR (BENIGN, MALIGNANT), Dose [Carcinogen]: 0.2 ML OF 0.025% SOLUTION IN ACETONE 2/WK FOR 23 WK STARTING 4 WK AFTER STAR OF AGENT TREATMENT, Promoter: NONE USED): 21/30 (70%), 25/28 (89%), -27%, not calculated
tumour outcome (control, treated, inhibition, significance) (Carcinogen: BENZO[A]PYRENE, 50-32-8, Dose [Inhibitor]: 0.25 MG 2/WK FOR 24 WK STARTING 4 WK BEFORE START OF CARCINOGEN TREATMENT AN D CONTINUING FOR DURATION OF STUDY (STUDY D, Route [Inhibitor]: SUBCUTANEOUS, Strain/Sex: 101/MALE, FEMALE, Target Tissue: Type of Lesion: SKIN: MALIGNANT TUMOR, Dose [Carcinogen]: 0.2 ML OF 0.25% 2/WK FOR 20 WK, Promoter: NONE USED): 12/18 (67%), 8/19 (42%), 37%, not calculated
tumour outcome (control, treated, inhibition, significance) (Carcinogen: BENZO[A]PYRENE, 50-32-8, Dose [Inhibitor]: 0.6% IN DIET DAILY STARTING 4 WK BEFORE START OF CARCINOGEN TREATMENT AND CONTINUING FOR DURATION OF STUDY (STUDY DURATI, Route [Inhibitor]: ORAL, Strain/Sex: 101/MALE, FEMALE, Target Tissue: Type of Lesion: SKIN: TUMOR (BENIGN, MALIGNANT), Dose [Carcinogen]: 0.2 ML OF 0.025% SOLUTION IN ACETONE 2/WK FOR 23 WK, Promoter: NONE USED): 21/30 (70%), 32/37 (86%), -23%, not calculated
tumour outcome (control, treated, inhibition, significance) (Carcinogen: BENZO[A]PYRENE, 50-32-8, Dose [Inhibitor]: 2.5 MG 2/WK FOR 24 WK STARTING 4 WK BEFORE START OF CARCINOGEN TREATMENT AND CONTINUING FOR DURATION OF STUDY (STUDY DUR, Route [Inhibitor]: SUBCUTANEOUS, Strain/Sex: 101/MALE, FEMALE, Target Tissue: Type of Lesion: SKIN: PAPILLOMA, Dose [Carcinogen]: 0.2 ML OF 0.25% 2/WK FOR 20 WK, Promoter: NONE USED): 13/18 (72%), 8/19 (42%), 42%, not calculated
tumour outcome (control, treated, inhibition, significance) (Carcinogen: UV IRRADIATION, Dose [Inhibitor]: 15 MG/ML DRINKING WATER DAILY FOR DURATION OF STUDY (STUDY DURATION: 11 MO), Route [Inhibitor]: ORAL, Strain/Sex: HR-HAIRLESS/MALE, Target Tissue: Type of Lesion: SKIN: SQUAMOUS CELL CARCINOMA, Dose [Carcinogen]: 5 MIN/D 6 D/WK FOR DURATION OF STUDY, Promoter: NONE USED): 6/6 (100%), 6/6 (100%), 0%, not significant
tumour outcome (control, treated, inhibition, significance) (Carcinogen: UV IRRADIATION, Dose [Inhibitor]: 15 MG/ML PROPYLENE GLYCOL DAILY FOR DURATION OF STUDY (STUDY DURATION: 11 MO), Route [Inhibitor]: DERMAL, Strain/Sex: HR-HAIRLESS/MALE, Target Tissue: Type of Lesion: SKIN: SQUAMOUS CELL CARCINOMA, Dose [Carcinogen]: 5 MIN/D 6 D/WK FOR DURATION OF STUDY, Promoter: NONE USED): 6/6 (100%), 7/7 (100%), 0%, not significant
